IC50 and inhibition data for seven compounds are collected here from ChEMBL document CHEMBL1150613, “New flavonol oligoglycosides and polyacylated sucroses with inhibitory effects on aldose reductase and platelet aggregation from the flowers of Prunus mume” (J Nat Prod, 2002).

Where only a bound is given, the exact number is not on record here.

Experiment [1] has as its target Aldo-keto reductase family 1 member B1 (Rattus norvegicus, UniProt P07943). Briefly: Inhibition of aldose reductase in rat lens homogenates by fluorophotometer.
Experiment [2] has as its target Aldo-keto reductase family 1 member B1 (Rattus norvegicus) (UniProt P07943). Briefly: Inhibition of aldose reductase in rat lens homogenates at 30 uM by fluorophotometry.
Experiment [3] relates to Platelet. Briefly: Inhibition of thrombin-induced platelet aggregation in washed rabbit platelets at 0.1 mM treated 2 mins before thrombin challenge by aggregometer. It counts as functional. Conditions: Oryctolagus cuniculus.
Experiment [4] deals with Platelet. Briefly: Inhibition of thrombin-induced platelet aggregation in washed rabbit platelets at 0.5 mM treated 2 mins before thrombin challenge by aggregometer. It counts as functional. Conditions: Oryctolagus cuniculus.
For experiment [5], the system named is Platelet. The experiment can be described thus: Inhibition of thrombin-induced platelet aggregation in washed rabbit platelets at 1.0 mM treated 2 mins before thrombin challenge by aggregometer. It counts as functional. Conditions: Oryctolagus cuniculus.

For the compound `C[C@@H]1O[C@@H](OC[C@H]2O[C@@H](Oc3c(-c4ccc(O)c(O)c4)oc4cc(O)cc(O)c4c3=O)[C@H](O[C@@H]3O[C@@H](C)[C@H](O)[C@@H](O)[C@H]3O)[C@@H](O)[C@H]2O)[C@H](O)[C@H](O)[C@H]1O`, in experiment [1], the IC50 – broadly, the concentration that inhibits the measured activity by half – is greater than 30 µM. In addition, in experiment [2], the inhibition (commonly the relative decrease from the control value, in per cent) was found to be 40%.

In turn, `CC(=O)Oc1ccccc1C(=O)O` [ASPIRIN] showed an inhibition at 100 µM in experiment [3] of 15.8%. The same compound showed an inhibition at 500 µM in experiment [4] of 39.4%. Also, in experiment [5], the inhibition at 1000 µM was determined as 53.5%.

The compound `C[C@@H]1O[C@@H](OC[C@H]2O[C@@H](Oc3c(-c4ccc(O)c(O)c4)oc4cc(O)cc(O)c4c3=O)[C@H](O)[C@@H](O)[C@@H]2O)[C@H](O)[C@H](O)[C@H]1O` [RUTIN] showed an IC50 in experiment [1] of 13 µM.

Regarding `COc1cc(-c2oc3cc(O)cc(O)c3c(=O)c2O[C@@H]2O[C@H](CO[C@@H]3O[C@@H](C)[C@H](O)[C@@H](O)[C@H]3O)[C@@H](O)[C@H](O)[C@H]2OC(C)=O)ccc1O`, half-maximal inhibition in experiment [1] (IC50) was put at 9.8 µM.

For `C[C@@H]1O[C@@H](O[C@H]2[C@H](Oc3c(-c4ccc(O)c(O)c4)oc4cc(O)cc(O)c4c3=O)O[C@H](CO)[C@H](O)[C@@H]2O)[C@H](O)[C@H](O)[C@H]1O`, the half-inhibitory concentration (IC50) in experiment [1] is 18 µM.

Take `COc1cc(-c2oc3cc(O)cc(O)c3c(=O)c2O[C@@H]2O[C@@H](C)[C@H](O)[C@@H](O)[C@H]2O)ccc1O`: the IC50 in experiment [1] was determined as 19 µM.

In experiment [1], `CC(=O)O[C@H]1[C@H](Oc2c(-c3ccc(O)c(O)c3)oc3cc(O)cc(O)c3c2=O)O[C@H](CO[C@@H]2O[C@@H](C)[C@H](O)[C@@H](O)[C@H]2O)[C@@H](O)[C@@H]1O` displayed an IC50 of 18 µM.
